Assay results as given in paper PMC8920379, “The discovery of berberine erythrocyte-hemoglobin self-assembly delivery system: a neglected carrier underlying its pharmacokinetics” (Drug Delivery, 2022).
“And” between values parts separate entries of the source, which are not always exact repeats. Equal values may be shown once. “Also recorded” adds a separate entry of the source.

Assays:
[1] = test system: erythrocyte count, WBC count, PLT and Hb; assay: Haematological indicators (peripheral blood cells) after intravenous BBR; type: in vivo, SD rats; details: rats, i.v. 2.5 mg/kg, 5, 30 and 120 min, vs control group, n = 8
Description: After 48 SD rats were fed adaptively for a week, they were randomly divided into the control group and i.v. group (24 rats per group). Then they were further divided into 5, 30, and 120 min subgroups (n = 8). The SD rats in the i.v. group were intravenously administrated with 2.5 mg/kg BBR, while the control group was intravenously administrated with 1 mL 0.9% physiological saline solution. The blood samples were collected from the retroorbital sinus to K2EDTA-coated tubes, and used for the evaluation of haematological indicators including erythrocyte count, white blood cell (WBC) count, platelet count (PLT) and Hb.

[2] = Erythrocytes/plasma partition coefficient of BBR in vivo; parameters: species or system SD rats; details: for Ce (drug concentration in erythrocytes) / Ce/p (erythrocytes/plasma partition coefficient) / Cp (drug concentration in plasma): individual rats no. 1-6
Description: After six SD rats were intravenously administrated with BBR, blood samples were obtained from posterior orbital venous plexus to a heparinized tube at 5, 30, and 120 min, respectively, and then centrifuged at 2500 rpm for 10 min. After centrifugation, the upper layer (plasma) was collected, while the lower layer (blood cells) was washed three times with physiological saline and centrifuged for 5 min at 3000 rpm, and then resuspended in an appropriate volume of physiological saline, which was obtained as erythrocytes to perform the following procedure:
Piperine was added into the obtained plasma as the internal standard substance and then the samples were mixed with acetonitrile to precipitate protein. The mixtures were centrifuged at 8000 rpm for 10 min. The supernatants were collected and dried. The eluates were concentrated and re-dissolved for analysis.
The obtained erythrocytes were mixed with piperine and HC, and placed in a water bath at 60 °C for 6 h and then centrifuged at 12,000 rpm for 10 min. The supernatant was obtained and injected through a solid-phase extraction to separate drugs and impurities. The filtrate was collected, dried, and then re-dissolved with 200 μL acetonitrile for HPLC analysis (Chen et al., [2021]).

Hemolysis rate = type: cell-based, rats; details: rat, washed rat erythrocytes, 2% hematocrit suspension, 2% erythrocytes, 37 °C
Description: (§1) The whole blood was collected from rats by orbital plexus vein and transferred into a blood-collection tube containing ethylene diamine tetraacetic acid (EDTA) as an anticoagulant. The whole blood was centrifuged at 3000 rpm for 10 min. The plasma and the buffy coat in the supernatant were removed by aspiration, and erythrocytes were washed three times in cold phosphate buffer saline (PBS) and centrifuged for 10 min at 3000 rpm, and then resuspended in an appropriate volume of PBS.
(§2) The hematocrite of washed erythrocytes was adjusted by PBS to 2%. In 5-mL Eppendorf tubes, 1 mL of 2% erythrocytes was incubated with 1 mL of different concentrations of BBR hydrochloride at 37 °C for 2 h. The final concentrations of BBR hydrochloride in reaction system were 0.125, 0.250, 0.500, 1.000, 1.333, 1.500, 1.600 mg/mL, respectively. One mL of 2% erythrocytes incubated with 1 mL saline solution served as the […] group while 1 mL 2% erythrocytes incubated with 1 mL distilled water served as the […] one. After incubation, the erythrocytes suspension was centrifuged at 3000 rpm for 10 min. Then 150 μL supernatant was added to the 96-well plate. Three parallel wells were set for each group, and the absorbance at 545 nm of each sample well was measured by a microplate reader. The imaging system was employed to observe whether BBR induced hemolysis. The hemolysis rate was calculated according to the following formula: Hemolysis rate (%) = [(ODsample−ODnegative)/(ODpositive −ODnegative)] ×100%

2% erythrocytes = assay: Hemolysis rate; type: cell-based, rats; details: 37 °C, 2 h
Description: as §1, §2

30% erythrocytes = assay: Berberine loading of erythrocytes (loading efficiency); type: in vitro ADME, rats; details: 37 °C, 2 h, n = 3
Description: as §1
In order to determine the effect of BBR concentration on loading efficiency, different concentrations (1.000, 0.100, 0.010 and 0.001 M) of BBR were comparatively used at 37 °C for fixed incubation time (2 h) to obtain the more suitable concentration for the loading process. The hematocrite of washed erythrocytes was adjusted by PBS to 30%. In the 5-mL Eppendorf tubes, 1 mL of 30% erythrocytes was added to 1 mL PBS containing the known concentration of the agent. The final concentrations of BBR in the reaction system were […] (185, 18.5, 1.85 and 0.185 μg/mL), respectively. The mixtures were gently mixed to avoid hemolysis and incubated for 2 h at 37 °C. After incubation, the erythrocytes suspension was centrifuged for 10 min at 3000 rpm and the supernatant was collected.
In order to verify the binding system, the supernatant was analyzed by quantifying the amount of unbound BBR through HPLC. In order to offset this effect, an internal standard method was employed in this study and piperine was chosen as the internal standard substance (200 μg/mL). Different known concentrations (500.00, 100.00, 20.00, 4.00, 0.80, 0.16 μg/mL) of BBR and piperine were used to create the standard curve. The peak area of each concentration with the concentration of piperine was measured 3 times. And then, the calibration curves were prepared using linear regression of known drug concentration versus peak area. The unknown concentration of BBR was analyzed by the regressed equation: y = a(x) + b. While y is the peak area ratio of BBR and piperine, a is the slope, b is the y-intercept, and x is the concentration of BBR.
After incubation, acetonitrile was added to the different incubated solutions for protein precipitation. The mixtures were centrifuged at 8000 rpm for 10 min. The supernatants were collected and dried. The eluates were concentrated and re-dissolved for analysis. The loading efficiency was calculated according to the following formula: Loading efficiency (%) = [(Moriginal drug−Mdrug after incubation)/Moriginal drug] ×100%

[3] = cited from earlier work
[4] = BBR 0.185 μg/mL in BBR-erythrocyte system
[5] = BBR 1.850 μg/mL in BBR-erythrocyte system
[6] = BBR 18.500 μg/mL in BBR-erythrocyte system

SMILES: COc1ccc2cc3[n+](cc2c1OC)CCc1cc2c(cc1-3)OCO2 [BBR, Berberine]
- Hb content [1]: significantly decreased; also recorded: significantly reduced
- erythrocytes count [1]: significantly decreased; also recorded: significantly reduced
- platelet count [1]: did not fluctuate obviously; also recorded: no significant effects
- white blood count [1]: did not fluctuate obviously; also recorded: no significant effects
- Ce (drug concentration in erythrocytes) ([2]; 5 min after 2.5 mg/kg): 1.313 µM and 0.039 µM and 0.000 µM and 0.375 µM and 0.862 µM and 0.584 µM
- Ce/p (erythrocytes/plasma partition coefficient) ([2]; 5 min after 2.5 mg/kg): ∞ and 0.081 and 1.610 and 3.700 and 1.405
- Cp (drug concentration in plasma) ([2]; 5 min after 2.5 mg/kg): 0 nM and 489 nM and 233 nM and 416 nM
- Ce (drug concentration in erythrocytes) ([2]; 30 min after 2.5 mg/kg): 0.044 µM and 0.212 µM and 0.026 µM and 0.176 µM and 0.539 µM
- Ce/p (erythrocytes/plasma partition coefficient) ([2]; 30 min after 2.5 mg/kg): ∞ and 0.090 and 0.897 and 0.875
- Cp (drug concentration in plasma) ([2]; 30 min after 2.5 mg/kg): 0 nM and 282 nM and 197 nM and 616 nM
- Ce (drug concentration in erythrocytes) ([2]; 120 min after 2.5 mg/kg): 0.225 µM and 0.000 µM and 0.132 µM
- Ce/p (erythrocytes/plasma partition coefficient) ([2]; 120 min after 2.5 mg/kg): ∞
- Cp (drug concentration in plasma) ([2]; 120 min after 2.5 mg/kg): 0 nM and 1243 nM
- Kp at 5 min ([2]; SD, rat, erythrocytes/plasma, iv, 2.5 mg/kg, 5 min after intravenous administration, rats, read-out: Ce/p value (group value)): 1.67 ± 1.5
- Kp at 30 min ([2]; SD, rat, erythrocytes/plasma, iv, 2.5 mg/kg, 30 min after intravenous administration, rats, read-out: Ce/p value (group value)): 0.62 ± 0.6
- hemolysis at 2 h, 1.5 mg/mL (Hemolysis rate; BBR 1.50 mg/mL): 58.2%
- hemolysis at 2 h, 1.6 mg/mL (Hemolysis rate; BBR 1.60 mg/mL): 89.7%
- hemolysis of the BBR-erythrocyte system (2% erythrocytes; BBR 1.00 mg/mL): relatively stable without hemolysis
- hemolysis of the erythrocyte (2% erythrocytes; BBR concentration below 1.00 mg/mL): no hemolysis
- Extracellular BBR concentration after incubation (30% erythrocytes; [4]): 0 ± 0.051 µg/mL
- Loading percentage (30% erythrocytes; [4]): 100% and 100 ± 19.84%
- Extracellular BBR concentration after incubation (30% erythrocytes; [5]): 0.115 ± 0.072 µg/mL
- Loading percentage (30% erythrocytes; [5]): 95.528 ± 2.622%
- Extracellular BBR concentration after incubation (30% erythrocytes; [6]): 2.288 ± 0.105 µg/mL
- Loading percentage (30% erythrocytes; [6]): 88.772 ± 0.410%
- concentration of BBR in the liver relative to plasma ([3]; background statement of the introduction, no reference given): about 10 fold
- average concentration of BBR in liver relative to plasma ([3]; ref Yan et al., 2009, Tan et al., 2013, Yu et al., 2017): 10–30 times
